US12336991B2, “Factor XIIA inhibitors” (UNIVERSITY OF LEEDS, priority 2018, dated 2025)

Assays:
Type in all cases: biochemical
[1] = molecular target: T1, FXIIa (Homo sapiens, UniProt P00748); experiment: Determination of Factor XIIa inhibition, chromogenic substrate S-2302 assay; settings: human FXIIa alpha
T1 sequence (P00748 373-615 limits assumed): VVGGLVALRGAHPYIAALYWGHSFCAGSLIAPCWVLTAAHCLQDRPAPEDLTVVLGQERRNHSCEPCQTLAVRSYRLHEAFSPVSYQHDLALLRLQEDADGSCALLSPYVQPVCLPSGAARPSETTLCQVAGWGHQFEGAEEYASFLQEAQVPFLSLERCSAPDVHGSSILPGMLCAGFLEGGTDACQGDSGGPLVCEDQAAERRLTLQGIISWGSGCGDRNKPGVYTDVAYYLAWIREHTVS
T1 sequence (P00748 20-372 partner limits assumed): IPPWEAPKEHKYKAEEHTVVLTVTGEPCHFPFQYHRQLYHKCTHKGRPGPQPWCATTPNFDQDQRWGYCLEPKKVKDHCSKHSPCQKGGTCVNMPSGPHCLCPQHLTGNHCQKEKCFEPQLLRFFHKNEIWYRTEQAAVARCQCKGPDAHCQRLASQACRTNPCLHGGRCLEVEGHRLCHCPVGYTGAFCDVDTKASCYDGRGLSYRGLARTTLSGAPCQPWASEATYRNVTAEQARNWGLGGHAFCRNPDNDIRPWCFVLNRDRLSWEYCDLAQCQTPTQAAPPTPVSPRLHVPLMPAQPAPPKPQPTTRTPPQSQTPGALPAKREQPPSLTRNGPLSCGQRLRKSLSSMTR
How it was run: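 FXIIa (10 nM) preincubated with compound 10 min at 37° C. in 50 mM Tris, 137 mM NaCl pH 7.4, 5% DMSO, top concentration 500 μM, then S-2302 added ([…]). Absorbance at 405 nm read kinetically for 3 h; IC50 from initial rates, converted to Ki by Cheng-Prusoff.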

[2] = molecular target: FXa (Homo sapiens, UniProt P00742); experiment: Determination of selectivity: FXa inhibition, chromogenic substrate S2765 assay; settings: fold selectivity for FXIIa over FXa
Chain of FXa (P00742 235-488 limits assumed): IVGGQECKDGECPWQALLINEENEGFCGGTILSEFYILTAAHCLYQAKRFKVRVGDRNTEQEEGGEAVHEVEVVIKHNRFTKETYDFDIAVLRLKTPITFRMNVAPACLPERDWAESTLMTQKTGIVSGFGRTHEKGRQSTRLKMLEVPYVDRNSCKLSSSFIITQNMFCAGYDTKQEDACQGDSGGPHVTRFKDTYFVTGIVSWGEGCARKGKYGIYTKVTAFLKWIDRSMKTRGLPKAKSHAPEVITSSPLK
Chain of FXa (P00742 41-179 partner limits assumed): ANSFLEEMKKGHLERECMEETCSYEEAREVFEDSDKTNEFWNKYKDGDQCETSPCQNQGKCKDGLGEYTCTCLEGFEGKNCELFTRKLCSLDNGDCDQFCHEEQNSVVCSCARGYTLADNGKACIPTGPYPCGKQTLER
How it was run: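 Human FXa (5 nM) preincubated with compound (top 500 μM, 5% DMSO) 10 min at 37 °C in 50 mM Tris, 137 mM NaCl pH 7.4, then S2765 ([…]) added; A405 kinetics over 3 h at 37 °C. IC50 from initial rates, converted to Ki via Cheng-Prusoff.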

[3] = molecular target: T2, thrombin (Homo sapiens, UniProt P00734); experiment: Determination of selectivity: thrombin inhibition, chromogenic substrate GPR assay; settings: fold selectivity for FXIIa over thrombin
T2 construct: FXa (5 nM) and thrombin (5 nM)
How it was run: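 Thrombin (5 nM) preincubated with compound 10 min at 37 °C in 50 mM Tris, 137 mM NaCl, pH 7.4, 5% DMSO, then GPR substrate ([…]) added. Absorbance at 405 nm read kinetically for 3 h; IC50 from initial rates, converted to Ki via Ki=IC50/(1+[S]/Km).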

SMILES: COc1ccc(C[C@@H]2C[C@@H](C(=O)NCc3ccc4c(c3)nnn4C)N(C(=O)[C@H]3CC(c4ccc(F)cc4)CN3)C2)cc1 (stereo partly drawn) [Example M05340]
- Ki [1]: 200 to 2000 nM
- FXa (human)/FXIIa alpha (human) [2]: ∘∘
- Thrombin (human)/FXIIa alpha (human) [3]: ++ (fold selectivity value of 10 to 100)

SMILES: COc1ccc(C[C@@H]2C[C@@H](C(=O)NCc3ccc4c(c3)nnn4C)N(C(=O)[C@H](N)CCC(=O)N3CCCC3C)C2)cc1 (stereo partly drawn) [Example M05391]
- Ki [1]: < 200 nM
- FXa (human)/FXIIa alpha (human) [2]: ∘∘∘
- Thrombin (human)/FXIIa alpha (human) [3]: +++ (fold selectivity values greater than 100)

SMILES: COc1ccc(C[C@@H]2C[C@@H](C(=O)NCc3ccc4c(c3)nnn4C)N(C(=O)[C@H]3CC(c4cn[nH]c4)CN3)C2)cc1 (stereo partly drawn) [Example M05454]
- Ki [1]: > 2000 nM
- FXa (human)/FXIIa alpha (human) [2]: ∘∘
- Thrombin (human)/FXIIa alpha (human) [3]: ++ (fold selectivity value of 10 to 100)

SMILES: COc1ccc(C[C@@H]2C[C@@H](C(=O)NCc3ccc4c(c3)nnn4C)N(C(=O)[C@H]3C[C@@H](c4ccccc4)CCN3)C2)cc1 [Example M05374]
- Ki [1]: > 2000 nM
- FXa (human)/FXIIa alpha (human) [2]: ∘∘
- Thrombin (human)/FXIIa alpha (human) [3]: ++ (fold selectivity value of 10 to 100)

SMILES: Cn1nnc2cc(CNC(=O)[C@@H]3C[C@@H](Cc4ccncc4)CN3C(=O)[C@H](N)CCC(=O)N3CCCC3)ccc21 [Example M05189]
- Ki [1]: 200 to 2000 nM
- FXa (human)/FXIIa alpha (human) [2]: ∘∘∘
- Thrombin (human)/FXIIa alpha (human) [3]: +++ (fold selectivity values greater than 100)

SMILES: Cn1cc(-c2cccc(C[C@@H]3C[C@@H](C(=O)NCc4ccc5c(c4)nnn5C)N(C(=O)[C@H](N)CCC(=O)N4CCCC4)C3)c2)cn1 [Example M05330]
- Ki [1]: 200 to 2000 nM
- FXa (human)/FXIIa alpha (human) [2]: ∘∘∘
- Thrombin (human)/FXIIa alpha (human) [3]: +++ (fold selectivity values greater than 100)

SMILES: COc1ccc(C[C@@H]2C[C@@H](C(=O)NCc3ccc4c(c3)nnn4C)N(C(=O)[C@H]3C[C@@H](n4ccccc4=O)CN3)C2)cc1 [Example M00958]
- Ki [1]: 200 to 2000 nM
- FXa (human)/FXIIa alpha (human) [2]: ∘∘∘
- Thrombin (human)/FXIIa alpha (human) [3]: +++ (fold selectivity values greater than 100)

SMILES: COc1ccc(C[C@@H]2C[C@@H](C(=O)NCc3ccc4c(c3)nnn4C)N(C(=O)[C@H]3CC(c4cccnc4F)CN3)C2)cc1 (stereo partly drawn) [Example M05418]
- Ki [1]: 200 to 2000 nM
- FXa (human)/FXIIa alpha (human) [2]: ∘∘∘
- Thrombin (human)/FXIIa alpha (human) [3]: +++ (fold selectivity values greater than 100)

SMILES: Cc1cccc(CC[C@@H](N)C(=O)N2CCC[C@H]2C(=O)NCc2ccc(CN)cc2)c1 [Example M00762]
- Ki [1]: > 2000 nM
- FXa (human)/FXIIa alpha (human) [2]: ∘∘
- Thrombin (human)/FXIIa alpha (human) [3]: + (fold selectivity values less than 10)

SMILES: Nc1cc(CNC(=O)[C@@H]2C[C@H](NC(=O)c3ccccc3)CN2C(=O)[C@H](N)CCc2ccccc2)ccn1 [Example M05142]
- Ki [1]: 200 to 2000 nM
- FXa (human)/FXIIa alpha (human) [2]: ∘∘
- Thrombin (human)/FXIIa alpha (human) [3]: + (fold selectivity values less than 10)

SMILES: Cn1nnc2cc(CNC(=O)[C@@H]3CC(Cc4ccnc(F)c4)CN3C(=O)[C@H](N)CCC(=O)N3CCCC3)ccc21 (stereo partly drawn) [Example M05315]
- Ki [1]: > 2000 nM
- FXa (human)/FXIIa alpha (human) [2]: ∘∘
- Thrombin (human)/FXIIa alpha (human) [3]: ++ (fold selectivity value of 10 to 100)

SMILES: COc1ccc(C[C@@H]2C[C@@H](C(=O)NCc3cc4ccncc4[nH]3)N(C(=O)[C@H]3C[C@@H](c4ccccc4)CN3)C2)cc1 [Example M00953]
- Ki [1]: < 200 nM
- FXa (human)/FXIIa alpha (human) [2]: ∘∘∘
- Thrombin (human)/FXIIa alpha (human) [3]: ++ (fold selectivity value of 10 to 100)

SMILES: Cn1nnc2cc(CNC(=O)[C@@H]3CC(Cc4cccc(C#N)c4)CN3C(=O)[C@H](N)CCC(=O)N3CCCC3)ccc21 (stereo partly drawn) [Example M05319]
- Ki [1]: 200 to 2000 nM
- FXa (human)/FXIIa alpha (human) [2]: ∘∘∘
- Thrombin (human)/FXIIa alpha (human) [3]: +++ (fold selectivity values greater than 100)

SMILES: Cn1nnc2cc(CNC(=O)[C@@H]3C[C@@H](Cc4ccc(S(C)(=O)=O)cc4)CN3C(=O)[C@H]3C[C@@H](c4ccccc4)CN3)ccc21 [Example M05372]
- Ki [1]: 200 to 2000 nM
- FXa (human)/FXIIa alpha (human) [2]: ∘∘∘
- Thrombin (human)/FXIIa alpha (human) [3]: ++ (fold selectivity value of 10 to 100)

SMILES: Cn1nnc2cc(CNC(=O)[C@@H]3C[C@H](Nc4cnccn4)CN3C(=O)[C@H](N)CCC(=O)N3CCCC3)ccc21 [Example M05243]
- Ki [1]: > 2000 nM
- FXa (human)/FXIIa alpha (human) [2]: ∘∘
- Thrombin (human)/FXIIa alpha (human) [3]: ++ (fold selectivity value of 10 to 100)

SMILES: CC(C)Oc1ccc(CC2C[C@@H](C(=O)NCc3ccc4c(c3)nnn4C)N(C(=O)[C@H]3C[C@@H](c4ccccc4)CN3)C2)cc1 (stereo partly drawn) [Example M05349]
- Ki [1]: 200 to 2000 nM
- FXa (human)/FXIIa alpha (human) [2]: ∘∘
- Thrombin (human)/FXIIa alpha (human) [3]: ++ (fold selectivity value of 10 to 100)

SMILES: COc1ccc(C[C@@H]2C[C@@H](C(=O)NCc3ccc4c(c3)nnn4C)N(C(=O)[C@H](N)CCC(=O)N3CCCC3C(F)(F)F)C2)cc1 (stereo partly drawn) [Example M05392]
- Ki [1]: < 200 nM
- FXa (human)/FXIIa alpha (human) [2]: ∘∘∘
- Thrombin (human)/FXIIa alpha (human) [3]: +++ (fold selectivity values greater than 100)

SMILES: COc1ccc(C[C@@H]2C[C@@H](C(=O)NCc3cc4ccncc4[nH]3)N(C(=O)[C@H](N)CCc3ccccc3)C2)cc1 [Example M00954]
- Ki [1]: < 200 nM
- FXa (human)/FXIIa alpha (human) [2]: ∘∘∘
- Thrombin (human)/FXIIa alpha (human) [3]: + (fold selectivity values less than 10)

SMILES: Cn1nnc2cc(CNC(=O)[C@@H]3C[C@H](c4ccc(F)cc4)CN3C(=O)[C@H](N)CCc3ccccc3)ccc21 [Example M05157]
- Ki [1]: > 2000 nM
- FXa (human)/FXIIa alpha (human) [2]: ∘∘
- Thrombin (human)/FXIIa alpha (human) [3]: ++ (fold selectivity value of 10 to 100)

SMILES: Cn1nnc2cc(CNC(=O)[C@@H]3C[C@@H](Cc4cccnc4)CN3C(=O)[C@H](N)CCC(=O)N3CCCC3)ccc21 [Example M05218]
- Ki [1]: 200 to 2000 nM
- FXa (human)/FXIIa alpha (human) [2]: ∘∘∘
- Thrombin (human)/FXIIa alpha (human) [3]: +++ (fold selectivity values greater than 100)

SMILES: Nc1nccc2cc(CNC(=O)[C@@H]3C[C@H](c4ccccc4)CN3C(=O)[C@H](N)CCC(=O)N3CCCC3)ccc12 [Example M05281]
- Ki [1]: 200 to 2000 nM
- FXa (human)/FXIIa alpha (human) [2]: ∘
- Thrombin (human)/FXIIa alpha (human) [3]: ++ (fold selectivity value of 10 to 100)

SMILES: COc1ccc(C[C@@H]2C[C@@H](C(=O)NCc3ccc4c(c3)nnn4C)N(C(=O)[C@H]3C[C@@H](c4ccccc4)CN3)C2)cc1 [Example M05289]
- Ki [1]: 200 to 2000 nM
- FXa (human)/FXIIa alpha (human) [2]: ∘∘∘
- Thrombin (human)/FXIIa alpha (human) [3]: +++ (fold selectivity values greater than 100)

SMILES: NCc1ccc(CNC(=O)[C@@H]2CCCN2C(=O)[C@H](N)CCC(=O)N2CC=CC2)cc1 [Example M00922]
- Ki [1]: > 2000 nM
- FXa (human)/FXIIa alpha (human) [2]: ∘∘
- Thrombin (human)/FXIIa alpha (human) [3]: + (fold selectivity values less than 10)
